US20160367620A1, “GLUTATHIONE” (priority 2015, published 2016)
Where “and” joins values, the source holds several entries; their conditions need not be identical. Equal values may be shown once. Read-outs that look alike come from different tables or passages of the source.

Experiments:
[1] = test system: Peripheral Blood Mononuclear Cells (PBMC's)
Procedure: A total of 10,000 glutathione assays were performed.
The Phase I/II data, was based on approximately 10,000 glutathione assays of peripheral blood mononuclear cells (PBMC's) of HIV positive people given the drug regimen.
The study detailed in Appendix B administered the glutathione to HIV infected, otherwise healthy males between 18 and 65, with CD4+ cell counts above 500, not on any other medications.
24 HIV positive people received glutathione in a clinical trial. The first dose of one gram was taken at 0 time, or 10:00 a.m., and the second dose at 3 hours, or 1:00p.m. A baseline was measured two weeks earlier, on the same patient. A temporary intravenous catheter was in place for 7 hours to permit frequent blood sampling at the numerous time points.

[2] = test system: monocyte-macrophages; settings: by conjugation of HNE; cited from earlier work
[3] = test system: high-affinity component of mitochondrial glutathione transport; settings: stimulated by ATP; cited from earlier work
[4] = test system: Concanavalin A stimulated proliferation of splenocytes; settings: rats, dietary GSH supplementation; cited from earlier work
[5] = test system: HIV-1; settings: cited from earlier work; for persistence of anti-HIV-1 effect in culture: single pulse exposure, monocyte/macrophages in vitro
[6] = test system: herpes viruses; settings: cell culture, extracellular glutathione; cited from earlier work
[7] = rat, plasma; cited from earlier work
[8] = test system: NFκB and COX-2; settings: cited from earlier work
[9] = test system: guinea pigs; settings: ascorbate deficient guinea pigs, 3.75 mmol/kg daily (1,152 mg/kg daily) in three divided doses; cited from earlier work
[10] = human, in vivo, iv
From the text: The kinetics and the effect of glutathione on plasma and urine sulfhydryls were studied in ten healthy human volunteers.

[11] = test system: HIV-1; settings: human macrophages, exogenous GSH; cited from earlier work
[12] = test system: microglial cells; settings: NO and superoxide generated via iNOS and NADPH-oxidase; cited from earlier work
[13] = test system: HIV; settings: 75 mg/kg in two equally divided doses
[14] = test system: cytotoxic T-lymphocytes; settings: mouse, injection of GSH on the third day post immunization; cited from earlier work
[15] = test system: hepatocellular carcinoma; settings: 5 g oral per day, two female patients who survived 1 year; cited from earlier work
[16] = cited from earlier work
[17] = human, in vivo, po, 15 mg/kg; cited from earlier work
[18] = test system: mouse neuroblastoma cells; settings: coadministration; cited from earlier work
[19] = test system: Mouse; settings: cited from earlier work
[20] = test system: human IL-4 production; settings: stimulated peripheral blood T cells, Th0- and Th2-like T cell clones; cited from earlier work
[21] = test system: Mouse; settings: pretreatment; cited from earlier work
[22] = i.v. GSH coadministration; cited from earlier work
[23] = test system: human venous endothelial cells and rat aortic smooth muscle cells; settings: cited from earlier work
[24] = test system: glucose-induced insulin secretion; settings: infusion 10 mg/min for 120 min, cited from earlier work
[25] = test system: HIV; settings: chronically infected cells, exogenous GSH; cited from earlier work
[26] = test system: RPE cells; settings: GSH supplemented in the medium; cited from earlier work
[27] = cited from earlier work; remark: listed apart in the source
[28] = test system: human immunodeficiency virus (HIV) expression; settings: U1 cells; cited from earlier work
[29] = human, in vivo, cited from earlier work
[30] = 1,200 mg/day i.v.; cited from earlier work
[31] = test system: influenza virus specific lymphocytes; settings: cited from earlier work
[32] = test system: human alveolar macrophages (AM); settings: AM previously exposed to LPS; cited from earlier work
[33] = test system: murine macrophage J774 cells; settings: pretreatment; cited from earlier work
[34] = test system: HIV-1 LTR; settings: Jurkat cells; cited from earlier work
[35] = test system: NFκB activation by LPS; settings: rats; cited from earlier work
[36] = test system: HUVEC and QG90 cell; settings: pretreatment of HUVEC, IL-1 induced; cited from earlier work

N[C@@H](CCC(=O)N[C@@H](CS)C(=O)NCC(=O)O)C(=O)O [GSH, gamma-glutamyl-cysteinyl-glycine]
intracellular glutathione insufficiency ([1]; PBMC's of HIV positive people): correction of the intracellular glutathione insufficiency was evident
dose dependence of PBMC glutathione ([1]; in vivo): dose response relationship
safety ([1]; in vivo): no evidence of toxicities
absorption and distribution within the PBMC completed ([1]; male, human, in vivo, po): 60 min
share absorbed and intracellular ([1]; male, human, in vivo, po): 80%
start of distribution into PBMC's / absorption after oral ingestion ([1]; male, human, in vivo, po): ≤ 0.5 h
macrophage death [2]: protected against macrophage death
V max [3]: approximately 0.5 n mol/min per mg of protein
age-associated decline of immune response [4]: reverse age-associated decline of immune response
HIV-1 expression in peripheral blood mononuclear cells (PBMC) ([5]; in vitro): blocked or substantially reduced
cellular toxicity in monocyte/macrophages ([5]; in vitro): without producing detectable cellular toxicity
duration of suppression of HIV production ([5]; infected monocytes, intracellular glutathione raised to the high end of the normal range): about 35 days
HIV-1 p24 antigen levels and reverse transcriptase activity ([5]; single pulse exposure of HIV-1-infected monocyte/macrophages): sustained, concentration-dependent decrease
persistence of anti-HIV-1 effect in culture [5]: at least 35 days
persistence of anti-HIV-1 effect in culture ([5]; listed as glutathione): 35 days
reproduction of herpes viruses [6]: inhibited or reduced
share of the remaining 30% as GSSG [7]: 9.5%
share of the remaining 30% as the mixed disulfide with cysteine [7]: 62.6%
activation of NFκB and COX-2 by H. pylori infection [8]: inhibited
toxicity [9]: toxic
half-life [10]: 14.1-9.2 minutes
production of p24 gag protein and virus infectivity [11]: strongly suppressed
peroxynitrite formation [12]: significantly decreased peroxynitrite formation
survival after starting on GSH ([13]; four far advanced AIDS patients who followed the regimen): 3 years
CD4+ cell counts ([13]; four patients): did not restore their CD4+ cell counts to any extent
augmentation of cytotoxic activity [14]: 5 fold
tumor growth [15]: regression or stagnation of their tumor growth
benefit ([16]; 3 grams daily for three months, 46 AIDS patients): no benefit was conclusively demonstrated
adverse effects ([16]; human, in vivo): No significant GSH-related adverse effects were reported
rise of plasma glutathione levels over the basal concentration [17]: 1.5-10 fold
deleterious effects of methylmercury [18]: largely prevented
LD50 ([19]; Intramuscular): 4000 mg/kg
LD50 ([19]; Intraperitoneal): 4020 mg/kg and 6815 mg/kg
LD50 ([19]; Intravenous): 2238 mg/kg
LD50 ([19]; Oral): 5000 mg/kg
LD50 ([19]; Subcutaneous): 5000 mg/kg
human IL-4 production [20]: decreased in a dose-dependent manner
morphine-induced lethality [21]: protects against morphine-induced lethality
nephrotoxicity of cisplatin and/or cyclophosphamide combination therapy [22]: reduces associated nephrotoxicity
peroxynitrite induced suppression of mitochondrial respiration, nitrotyrosine formation, protein oxidation, DNA single strand breakage [23]: attenuated
insulin clearance and action [24]: No effect
glucose-induced insulin secretion ([24]; patients with IGT): significantly potentiated glucose-induced insulin secretion
virus infectivity, budding and release of virus particles [25]: strongly suppresses
growth of RPE cell cultures [26]: thrive
systolic and diastolic blood pressure ([27]; 1,844 mg i.v. bolus, hypertensive patients and non-hypertensive diabetics): rapid and significant decrease in both systolic and diastolic blood pressure
blood pressure ([27]; 1,844 mg i.v. bolus, normal healthy subjects): no effect
return of blood pressure to baseline ([27]; 1,844 mg i.v. bolus): ≤ 30 min
blood pressure values ([27]; 3,699 mg dose, normal subjects): significant decrease in the blood pressure values in normal subjects
cytotoxic or cytostatic effects [28]: absence of cytotoxic or cytostatic effects
induction of HIV expression mediated by PMA, TNF-α, or IL-6 [28]: suppressed in a dose-dependent fashion
volume of distribution of exogenous glutathione ([29]; iv): 176-107 MI/Kg
plasma concentration of total cyst(e)ine [29]: decreased
hematologic parameters (hematocrit, hemoglobin, blood count) compared to baseline [30]: significantly increase studied hematologic parameters

CC(=O)N[C@@H](CS)C(=O)O [NAC, N-Acetyl-L-Cysteine]
IFN γ production [31]: increased
influenza virus specific lymphocyte proliferation [31]: increased
specific activity of influenza specific CD8+ CTL's [31]: enhanced
activation of NFκB and COX-2 by H. pylori infection [8]: inhibited
IL-12 secretion [32]: enhanced
protection of macrophages against SNAP [33]: protected
induction of HIV-1 LTR-mediated gene expression by TNF-α and Tat [34]: significantly suppressed
NFκB activation by LPS [35]: decreased
decrease of lung lavage neutrophil count [35]: six fold
human IL-4 production [20]: decreased in a dose-dependent manner
cytotoxic or cytostatic effects [28]: absence of cytotoxic or cytostatic effects
induction of HIV expression mediated by PMA, TNF-α, or IL-6 [28]: suppressed in a dose-dependent fashion
cell-to-cell attachment of cancer cells to HUVEC [36]: efficiently blocked the cell-to-cell attachment in a dose-dependent manner
